Test results from patent publication US10954287B2, “Ras binding peptides and methods of use” (Ra Pharmaceuticals, Inc., priority 2016, dated 2021).
Read-outs that look alike come from different tables or passages of the source.

Legend:
K-Ras G12D = target: T1, K-Ras G12D (Homo sapiens, UniProt P01116, G12D); assay: Surface plasmon resonance (SPR) binding to immobilized K-Ras; settings: for Kd / kd / kon: 25° C.; for kon: read-out: ka
T1 construct: For K-Ras, the construct was full-length; made in house
Method: Surface Plasmon Resonance (SPR) experiments were conducted at 25° C. using the ProteOn XPR36 system from BioRad Laboratories, Inc (Hercules, Calif.). […] Kinetic characterization of cyclomimetic binding was performed to determine kon, koff, and Kd. […] was co-injected with RAF-RBD to evaluate competitive binding. Data analysis was performed using BioRad ProteOn Manager software.

H-Ras = target: T2, H-Ras (Homo sapiens, UniProt P01112, G12V); assay: Differential scanning fluorimetry (DSF); type: binding; settings: Ras 5 μM, peptide 20 μM, FIG. 8A
T2 construct: made in house; host or cells: E. coli BL21 (DE3)
Method: Differential scanning fluorimetry (DSF) is based on denaturation of the protein in the absence or presence of a ligand, exposing hydrophobic residues that can be detected with high sensitivity with a fluorescent dye. […] DSF was performed on a CFX 96-well plate, real-time PCR instrument (Bio-Rad, Hercules, Calif.) according to Nettleship et al. [Nettleship, J. E., Brown, J., Groves, M. R., and Geerlof, A. (2008) Methods for protein characterization by mass spectrometry, thermal shift (ThermoFluor) assay, and multiangle or static light scattering. Methods Mol. Biol. 426: 299-318), the contents of which are incorporated herein by reference in their entirety]. SYPRO orange was purchased from Life Technologies (Carlsbad, Calif.). After incubation of Ras (5 μM) and peptide (20 μM) at room temperature for 15 minutes in 20 mM Tris-HCl (pH 8), 150 mM NaCl, 1 mM MgCl2, 2 mM DTT, and 0.2% dimethyl sulfoxide, SYPRO orange was added to the final concentration of 10× (original stock at 5000×). The mixture was subsequently heated in Bio-Rad CFX 96 PCR instrument from 25 to 95° C. in increments of 0.3° C./10 s. Fluorescence intensity was measured using excitation and emission wavelengths of 483 and 610 nm, respectively. Changes in protein thermal stability (ATm) upon peptide binding were analyzed by using Bio-Rad CFX Manager Software provided by the manufacturer.

[1] = target: T3, SOS^cat catalyzed nucleotide exchange of H-Ras-GDP (Homo sapiens, UniProt P01112, G12V); assay: SOS-mediated nucleotide exchange (MANT-GMPPNP fluorescence); type: biochemical; settings: 25 μM of R4000, 1 μM H-Ras-GDP, 2 μM SOS^cat
T3 construct: made in house; host or cells: E. coli BL21 (DE3)
Method: A sequence encoding the Ras exchanger motif and Cdc25 domains of human guanine nucleotide exchange factor SOS1 (amino acids 564-1049, designated as SOS^cat hereafter) was synthesized at GeneArt (Life Technologies, Carlsbad, Calif.) and subcloned into the pET28a expression vector (Novagen, Darmstadt, Germany) for expression in E. coli. The identity of the expression construct was confirmed by DNA sequencing. The plasmid encoding SOS^cat was transformed into BL21 (DE3). Cells were grown at 37° C. to an absorbance of 0.5 (OD600) in LB media containing 25 μg/mL of kanamycin and then transferred to 20° C. prior to induction with 0.1 mM IPTG. Cells were harvested 15 hours after induction and the pellet was lysed with B-PER Bacteria Extraction Reagent (Pierce/Thermo Scientific, Rockford, Ill.) containing EDTA-free protease inhibitors. […]
The SOS^cat protein was then dialysed into a buffer containing 25 mM Tris-HCl, pH 7.5, 150 mM NaCl, 5 mM MgCl2, and 1 mM DTT and stored at −80° C. […] Changes in fluorescence were measured by a fluorescence spectrometer (SpectraMax M3; Molecular Devices) in a black 96 half-area well plate (Corning 3686). Fluorescence was excited at λ=370 nm and emission was monitored at λ=450 nm every 20 s for over 30 minutes at 22° C. The nucleotide exchange rates were expressed as Vmax (milli-units per minute).

[2] = target: T4, GST-tagged RAF-RBD and biotinylated H-Ras loaded with GMPPNP (Homo sapiens, UniProt P01112, G12V); assay: TR-FRET of the interaction between GST-tagged RAF-RBD and biotinylated H-Ras; type: binding; settings: 12.5 nM Bio-H-Ras GMPPNP, 10 nM GST-RAF-RBD, FIG. 8C
T4 construct: made in house; host or cells: E. coli BL21 (DE3)
Method: The interaction between GST-tagged RAF-RBD and biotinylated H-Ras (Bio-H-Ras) loaded with GMPPNP was detected using TR-FRET. Assays were performed in 384 well plates (Proxiplate-384 plus, Perkin Elmer, Waltham, Mass.). Bio-H-Ras GMPPNP was diluted in assay buffer (50 mM Tris-HCl, pH 7.5, 5 mM MgCl2, 0.0025% Tween-80, 1 mM DTT, and 50 nM GMPPNP) at a final concentration of 12.5 nM. R4000 was serially diluted in DMSO, then diluted in assay buffer and incubated with Bio-H-Ras GMPPNP for 30 minutes at room temperature (1% DMSO final). GST-RAF-RBD was added to the assay (10 nM final) and incubated 60 minutes at room temperature. Europium cryptate conjugated-anti-GST (donor; Perkin Elmer, Waltham, Mass.) and streptavidin conjugated to SureLight-Allophycocyanin (acceptor; Perkin Elmer, Waltham, Mass.) was added to the wells at final concentrations of 1 nM and 1.25 nM, respectively. Reaction mixtures were incubated at room temperature for 2 hours then detected using an EnVision Multilabel Plate Reader (Perkin Elmer, Waltham, Mass.) with excitation at 340 nm and emission at 615 nm (donor) and 665 nm (acceptor). FRET ratios (615 emission/665 emission) were calculated per well. Data was analyzed using GraphPad Prism, and IC50 values were generated by fitting dose response data to a 4 parameter fit sigmoidal dose response curve. […]

Kd (K-Ras G12D; K-Ras G12D loaded with GDP): 4.4 nM
kd (K-Ras G12D; K-Ras G12D loaded with GDP): 0.003 s⁻¹
kon (K-Ras G12D; K-Ras G12D loaded with GDP): 680000 M⁻¹ s⁻¹
Kd (K-Ras G12D; K-Ras G12D loaded with GMPPNP): 2.8 nM
kd (K-Ras G12D; K-Ras G12D loaded with GMPPNP): 0.0016 s⁻¹
kon (K-Ras G12D; K-Ras G12D loaded with GMPPNP): 570000 M⁻¹ s⁻¹
competitive binding on co-injection with RAF-RBD (K-Ras G12D; R4000 co-injected with RAF-RBD, FIG. 7A): additive signals
Δ Tm (H-Ras): +11 °C
effect on the rate of SOS catalyzed nucleotide exchange [1]: does not effect the rate of exchange
blocking of H-Ras binding to RAF [2]: does not block binding to RAF
Compound: CCC[C@H](NC(C)=O)C(=O)N[C@H]1CSCc2cccc(c2)CSC[C@@H](C(N)=O)NC(=O)CN(C)C(=O)[C@H](Cc2ccc(F)cc2)N(C)C(=O)[C@H](Cc2ccc(O)cc2)NC(=O)[C@H](Cc2c[nH]c3ncccc23)NC(=O)[C@H](c2ccccc2)NC(=O)[C@H](C)N(C)C(=O)[C@H](Cc2cnc[nH]2)NC(=O)[C@H](CCCCN)NC(=O)[C@H](C(C)(C)C)NC(=O)[C@H](Cc2ccc(O)cc2)NC1=O (relative stereo) [Compound R4000, ACE-NVA-CYS*-TYR-TBG-LYS-HIS-NMA-PHG-7AW-TYR-MFF-SAR-CYS*-NH2]
